Row | Structure (SMILES) | melting point
1 | O=C(O)C(=O)O.OC1(c2ccc(Cl)cc2)CCN(CCC2CCCc3sccc32)CC1 (stereo not drawn) | 184 to 185 °C
2 | C(/CN1CCC(c2ccccc2)CC1)=C1/CCCc2sccc21.O=C(O)C(=O)O [Example 6, (E)-1-(2-(6,7-dihydrobenzo[b]thien-4(5H)-ylidene)ethyl)-4-phenylpiperidine oxalate] | 160 to 163 °C
3 | C(/CN1CCCCC1)=C1/CCCc2sccc21.O=C(O)C(=O)O [Example 10, (E)-1-(2-(6,7-dihydrobenzo[b]thien-4(5H)-ylidene)ethyl)piperidine oxalate] | 148 to 150 °C
4 | CC1CCN(C/C=C2\CCCc3sccc32)CC1.O=C(O)C(=O)O [Example 12, (E)-1-(2-(6,7-dihydrobenzo[b]thien-4(5H)-ylidene)ethyl)-4-methylpiperidine oxalate] | 139 to 141 °C
5 | C(/CN1CCOCC1)=C1/CCCc2sccc21.O=C(O)C(=O)O [Example 14, (E)-4-(2-(6,7-dihydrobenzo[b]thien-4(5H)-ylidene)ethyl)morpholine oxalate] | 171 to 174 °C
6 | FC(F)(F)c1ccc(C2CCN(CCC3CCCc4sccc43)CC2)cc1.O=C(O)C(=O)O (stereo not drawn) [Example 26, 1-(2-(4,5,6,7-tetrahydrobenzo[b]thiophen-4-yl)ethyl)-4-(4-(trifluoromethyl)phenyl)piperidine oxalate] | 180 to 182 °C
7 | Fc1cccc(C2CCN(CCC3CCCc4sccc43)CC2)c1.O=C(O)C(=O)O (stereo not drawn) [Example 30, 4-(3-fluorophenyl)-1-(2-(4,5,6,7-tetrahydrobenzo[b]thiophen-4-yl)ethyl)piperidine oxalate] | 203 to 204 °C
8 | O=C(O)C(=O)O.c1ccc2c(C3CCN(CCC4CCCc5sccc54)CC3)cccc2c1 (stereo not drawn) [Example 32, 4-(naphthalen-1-yl)-1-(2-(4,5,6,7-tetrahydrobenzo[b]thiophen-4-yl)ethyl)piperidine oxalate] | 197 to 198 °C
9 | Clc1ccc(C2CCN(CCC3CCCc4sccc43)CC2)cc1.O=C(O)C(=O)O (stereo not drawn) [Example 34, 4-(4-chlorophenyl)-1-(2-(4,5,6,7-tetrahydrobenzo[b]thiophen-4-yl)ethyl)piperidine oxalate] | 201 to 202 °C

Further lines, results first:

Row | melting point | Structure (SMILES)
10 | 172 to 176 °C | O=C(O)C(=O)O.c1ccc2c(c1)COC21CCN(CCC2CCCc3sccc32)CC1 (stereo not drawn)
11 | 186 to 189 °C | O=C(O)C(=O)O.O=C1OC2(CCN(CCC3CCCc4sccc43)CC2)c2ccccc21 (stereo not drawn)
12 | 198 to 199 °C | C1=CC2(CCN(CCC3CCCc4sccc43)CC2)c2ccccc21.O=C(O)C(=O)O (stereo not drawn)
13 | 139 to 141 °C | CN(C/C=C1\CCCc2sccc21)Cc1ccccc1.O=C(O)C(=O)O [Example 4, (E)-N-benzyl-2-(6,7-dihydrobenzo[b]thien-4(5H)-ylidene)-N-methylethanamine oxalate]
14 | 129 to 130 °C | CN(C/C=C1\CCCc2sccc21)CCc1ccccc1.O=C(O)C(=O)O [Example 8, (E)-N-(2-(6,7-dihydrobenzo[b]thien-4(5H)-ylidene)ethyl)-N-methyl-2-phenylethanamine oxalate]
15 | 203 to 205 °C | O=C(O)C(=O)O.c1ccc2c(c1)CN(CCC1CCCc3sccc31)C2 (stereo not drawn) [Example 22, 2-(2-(4,5,6,7-tetrahydrobenzo[b]thien-4-yl)ethyl)isoindoline oxalate]
16 | 168 to 171 °C | CN(CCC1CCCc2sccc21)Cc1ccccc1.O=C(O)C(=O)O (stereo not drawn) [Example 24, N-benzyl-N-methyl-2-(4,5,6,7-tetrahydrobenzo[b]thien-4-yl)ethanamine oxalate]
17 | 188 to 190 °C | Cc1ccccc1C1CCN(CCC2CCCc3sccc32)CC1.O=C(O)C(=O)O (stereo not drawn) [Example 28, 1-(2-(4,5,6,7-tetrahydrobenzo[b]thiophen-4-yl)ethyl)-4-o-tolylpiperidine oxalate]
18 | 160 to 162 °C | COc1ccccc1C1CCN(CCC2CCCc3sccc32)CC1.O=C(O)C(=O)O (stereo not drawn) [Example 36, 4-(2-methoxyphenyl)-1-(2-(4,5,6,7-tetrahydrobenzo[b]thiophen-4-yl)ethyl)piperidine oxalate]
